Marks after values point to notes of the source that are not given here.
What was measured:
[1] = system: human esophageal cancer ECA109 transplanted tumor; test: Example 8: tumor growth in ECA109 transplanted tumor model; format: in vivo, nude mice; settings: DDP 5 mg/kg i.p. QW×4
From the text: The assay animals, calculation of tumor volume (TV), end of assay, data recording, calculation formula of tumor growth inhibition rate TGI (%), and statistical analysis method were the same as those in Example 3; the preparation of the administration formulation of the compound of formula (I) was the same as that in Example 5. An appropriate amount of CMC-Na solid was weighed, and an appropriate volume of deionized water was firstly added. The mixture was vortexed and stirred until the solid was completely dispersed and evenly distributed, to give a 0.5% CMC-Na aqueous solution, which was stored at 2 to 8° C. in a refrigerator. An appropriate amount of DDP was weighed and put into a glass bottle, and an appropriate amount of physiological saline was added to the bottle. […] This solution was prepared before each administration. Human esophageal cancer cells ECA109 were obtained from the Cell Bank of Wuhan University (CCTCC, cryopreserved in liquid nitrogen in the laboratory). […] The cells were pipetted with a pipette to disperse them evenly, and the cells were put into a 50-mL centrifuge tube, which was placed in an ice box. A 1-mL syringe was used to draw the cell suspension, which was injected subcutaneously into the axilla of the front right limb of a […]. Each animal was inoculated with 200 μL (1.0×10^7 cells/mouse) to establish an ECA109 transplanted tumor model in nude mice. After the inoculation, the animal status and tumor growth were regularly observed, and the tumor diameter was measured using an electronic vernier caliper. The data were input into an Excel spreadsheet to calculate the tumor volume. When the tumor volume reached 100 to 300 mm^3, animals in good health and with similar tumor volumes were selected and divided into groups using randomized block method. The day of grouping was regarded as the first day of the assay (D1). After the start of the assay, the tumor diameter was measured twice a week, the tumor volume was calculated, and the animal body weight was also weighed and recorded. [table]

NCI-H460 cells = test: Flow cytometry for apoptosis detection (Annexin V-FITC/PI), NCI-H460; format: cell-based, human; settings: 72 h
Description: (§1) (1) Cells were inoculated in a 6-well plate. When the cell growth density was appropriate, four concentrations (0 μM, 10 μM, 30 μM, and 90 μM) of the compound of formula (I) were added, and placed in an incubator at 37° C. with 5% CO2 to continue culturing for 72 hours.
(§2) (2) After reaching the designated time point, the cell culture plate was taken out from the incubator, and placed in a biological safety cabinet. A 4 ml centrifuge tube was taken and marked. The supernatant in the 6-well plate was pipetted out and added to the corresponding 4 ml centrifuge tube. The cells were gently washed with PBS, and the PBS was added to the corresponding centrifuge tube. An appropriate amount of trypsin was added to each well to digest the cells. When the cells were digested to a moderate degree, the liquid in the centrifuge tube was added to the corresponding well. The cells were gently pipetted with a pipette to disperse the cells, and was pipetted back into the original centrifuge tube. The tube was immediately centrifuged at 1500 rpm for 5 minutes. Then, the supernatant was discarded and the precipitate was retained.
(§3) (3) 2 ml of PBS was added to the centrifuge tube, which was centrifuged again at 1000 rpm for 5 minutes. The supernatant was discarded. This step was repeated again.
(§4) (4) The cells were suspended with 1× Binding buffer, and the cell concentration was adjusted to approximately 1×10^6 cells/ml. 100 μl of cell suspension was added to the flow cytometry tube, and 5 μl of PI and 5 μl of Annexin V-FITC were added to each tube. The cells were gently vortexed, and incubated at room temperature in dark for 15 min.
(§5) (5) 400 μl of 1× Binding buffer was further added to each tube, and the detection was performed on the flow cytometer (the detection was in need to be completed within 1 hour).
(§6) We used AnnexinV-FITC and PI double staining method for apoptosis staining. FL1 channel was selected for FITC, and FL2 channel was selected for PI. Flow cytometry analysis was used to detect cell apoptosis. Q1, Q2, Q3, and Q4 represented dead cells, late apoptotic cells, early apoptotic cells, and normal cells, respectively (FIG. 7). After treating A549 and NCI-H460 cells with the compound of formula (I) at different concentrations (0 μM, 10 μM, 30 μM, and 90 μM) for 72 h, the flow cytometry results are as follows. Table 1 and Table 2 show the proportions of dead cells, late apoptotic cells, early apoptotic cells, and normal cells after treating the A549 and NCI-H460 cells with different concentrations of the compound of formula (I), respectively.

A549 cells = test: Flow cytometry for apoptosis detection (Annexin V-FITC/PI), A549; format: cell-based, human; settings: 72 h
Description: as §1, §2, §3, §4, §5, §6

For `N.N.[Cl][Pt][Cl]` [DDP, cisplatin], the Mean tumor volume ([1]; D1) was 193 ± 9 mm^3, the Mean tumor volume ([1]; D5) was 204 ± 5 mm^3 and the “tumor growth inhibition rate (TGI)” value ([1]; D5) was “(64%)”. For the same compound, the Mean tumor volume ([1]; D8) was 203 ± 11** mm^3, the “tumor growth inhibition rate (TGI)” value ([1]; D8) was “(87%)” and the Mean tumor volume ([1]; D12) was 215 ± 10** mm^3. The “tumor growth inhibition rate (TGI)” value ([1]; D12) was “(79%)”, the Mean tumor volume ([1]; D15) was 224 ± 8** mm^3 and the “tumor growth inhibition rate (TGI)” value ([1]; D15) was “(79%)”. For the same compound, the Mean tumor volume ([1]; D19) was 247 ± 8** mm^3, the “tumor growth inhibition rate (TGI)” value ([1]; D19) was “(67%)” and the Mean tumor volume ([1]; D22) was 259 ± 8** mm^3. For the same compound, the “tumor growth inhibition rate (TGI)” value ([1]; D22) was “(63%)”, the Mean tumor volume ([1]; D26) was 276 ± 9** mm^3 and the “tumor growth inhibition rate (TGI)” value ([1]; D26) was “(58%)”. For the same compound, the Mean tumor volume ([1]; D29) was 285 ± 9** mm^3, the “tumor growth inhibition rate (TGI)” value ([1]; D29) was “(59%)” and the Mean tumor volume ([1]; D33) was 259 ± 12** mm^3. The “tumor growth inhibition rate (TGI)” value ([1]; D33) was “(73%)”, the Mean tumor volume ([1]; D36) was 292 ± 11** mm^3 and the “tumor growth inhibition rate (TGI)” value ([1]; D36) was “(60%)”.
For `COC1=C(OC)C(=O)C(CCCCCCCCCCOC(=O)Cc2c(C)n(C(=O)c3ccc(Cl)cc3)c3ccc(OC)cc23)=C(C)C1=O` [compound of formula (I)], the “Q1 Gated % (dead cells)” value (NCI-H460 cells; 10 μM) was 1.72 ± 0.08%, the “Q2 Gated % (late apoptotic cells)” value (NCI-H460 cells; 10 μM) was 3.23 ± 2.59% and the “Q3 Gated % (early apoptotic cells)” value (NCI-H460 cells; 10 μM) was 1.55 ± 1.16%. For the same compound, the “Q4 Gated % (normal cells)” value (NCI-H460 cells; 10 μM) was 93.5 ± 3.82%, the “percentage of apoptosis (total apoptosis)” value (“percentage of apoptosis” below) (NCI-H460 cells; 10 μM) was 4.78 ± 3.75 and the “Q1 Gated % (dead cells)” value (NCI-H460 cells; 30 μM) was 1.75 ± 0.45%. For the same compound, the “Q2 Gated % (late apoptotic cells)” value (NCI-H460 cells; 30 μM) was 4.79 ± 0.37%, the “Q3 Gated % (early apoptotic cells)” value (NCI-H460 cells; 30 μM) was 5.01 ± 1.70% and the “Q4 Gated % (normal cells)” value (NCI-H460 cells; 30 μM) was 88.45 ± 2.47%. The “percentage of apoptosis” value (NCI-H460 cells; 30 μM) was 9.8 ± 2.06, the “Q1 Gated % (dead cells)” value (NCI-H460 cells; 90 μM) was 0.55 ± 0.04% and the “Q2 Gated % (late apoptotic cells)” value (NCI-H460 cells; 90 μM) was 9.32 ± 0.35%. For the same compound, the “Q3 Gated % (early apoptotic cells)” value (NCI-H460 cells; 90 μM) was 38.35 ± 2.33%, the “Q4 Gated % (normal cells)” value (NCI-H460 cells; 90 μM) was 51.85 ± 2.05% and the “percentage of apoptosis” value (NCI-H460 cells; 90 μM) was 47.67 ± 1.99. For the same compound, the “Q1 Gated % (dead cells)” value (A549 cells; 10 μM) was 1.07 ± 0.51%, the “Q2 Gated % (late apoptotic cells)” value (A549 cells; 10 μM) was 2.57 ± 0.48% and the “Q3 Gated % (early apoptotic cells)” value (A549 cells; 10 μM) was 1.86 ± 0.37%. The “Q4 Gated % (normal cells)” value (A549 cells; 10 μM) was 94.5 ± 0.57%, the “percentage of apoptosis” value (A549 cells; 10 μM) was 4.43 ± 0.11 and the “Q1 Gated % (dead cells)” value (A549 cells; 30 μM) was 1.34 ± 0.19%. The “Q2 Gated % (late apoptotic cells)” value (A549 cells; 30 μM) was 3.08 ± 0.16%, the “Q3 Gated % (early apoptotic cells)” value (A549 cells; 30 μM) was 2.58 ± 1.38% and the “Q4 Gated % (normal cells)” value (A549 cells; 30 μM) was 93.05 ± 1.34%. For the same compound, the “percentage of apoptosis” value (A549 cells; 30 μM) was 5.65 ± 1.54, the “Q1 Gated % (dead cells)” value (A549 cells; 90 μM) was 0.31 ± 0.14% and the “Q2 Gated % (late apoptotic cells)” value (A549 cells; 90 μM) was 20.9 ± 3.39%. For the same compound, the “Q3 Gated % (early apoptotic cells)” value (A549 cells; 90 μM) was 50.4 ± 1.41%, the “Q4 Gated % (normal cells)” value (A549 cells; 90 μM) was 28.4 ± 4.67% and the “percentage of apoptosis” value (A549 cells; 90 μM) was 71.3 ± 4.81.

Source: patent US20250270170A1, “2,3-DIMETHOXY-5-METHYL-1,4-BENZOQUINONE ALKYL ALCOHOL DERIVATIVE AND USE THEREOF” (BEIJING ANJIANXI BIO-MEDICAL TECHNOLOGY CO., LTD., priority 2021, published 2025)
